Key:
[1] = estimated; called medium value
[2] = not given; remark: listed apart in the source

dissociation constant (pK) [1]: > 3.3
solubility (variety of organic solvents, including solvents containing polymers): soluble in a variety of organic solvents
light stability ([2]; as a solid): light stable
photostability ([2]; present in a coating): not photostable
Compound: CCCCNC(=O)[N-]S(=O)(=O)c1ccc(C)cc1.[Ag+] [AgTol, silver tolbutamide]
solubility compared with silver sulfadiazine (relative to silver sulfadiazine): considerably greater than that of silver sulfadiazine

From patent US20090289071A1, “Flow Through Components with an Antimicrobial Lining” (THE BOC GROUP, INC., priority 2004, published 2009)
